Read-outs that look alike come from different tables or passages of the source.
Columns and labels:
PBR [1] = molecular target: T1, PBR (Rattus norvegicus, UniProt P16257); assay: In vivo blocking assay (biodistribution after pre-administration of PK11195 or non-radioactive analogue); set-up: species or system Wistar rats; conditions: 30 min after injection; for Blood (% of vehicle), PK11195 block / Lungs (% of vehicle), PK11195 block / Muscle (% of vehicle), PK11195 block / Olfactory bulb uptake (% of vehicle), PK11195 block / Striata uptake (% of vehicle), PK11195 block: PK11195 3 mg/kg 5 min before tracer; for Blood (% of vehicle), Non-radioactive Analogue block / Lungs (% of vehicle), Non-radioactive Analogue block / Muscle (% of vehicle), Non-radioactive Analogue block / Olfactory bulb uptake (% of vehicle), Non-radioactive Analogue block / Striata uptake (% of vehicle), Non-radioactive Analogue block: non-radioactive analogue 3 mg/kg 5 min before tracer
T1 construct: Various tissues including brain stem and olfactory bulb were removed from the animals; from tissue; host or cells: Wistar rat, in vivo tissues (A7); frozen sections of brain stem and olfactory bulb (A8)
Experimental: The in vivo biodistributions of the PET tracer of the invention compared with its associated racemate were tested after pre-administration of their respective non-radioactive analogues, or pre-administration of the known PBR-specific ligand, PK11195.
PK11195 or a non-radioactive analogue (both at 3 mg/kg) was administered 5 min before the radiolabelled test compound.

PBR [2] = molecular target: T1, PBR; assay: Facial nerve axotomy model of inflammation, in vitro autoradiography of tissue sections; assay type: binding, Wistar rats; conditions: for Naïve brain stem % specific binding, Unlabelled ligand / Olfactory bulb % specific binding, Unlabelled ligand / FNA brain stem % specific binding, Unlabelled ligand: blocked with non-radioactive PET tracer at 1 μM; for Naïve brain stem % specific binding, PK11195 / Olfactory bulb % specific binding, PK11195 / FNA brain stem % specific binding, PK11195: blocked with non-radioactive PK11195 at 1 μM; for FNA brain stem % specific binding, Unlabelled ligand / FNA brain stem % specific binding, PK11195: facial nerve axotomy
Experimental: Binding to a focal site of neuroinflammation was tested by autoradiography.
Male Wistar rats (200-300 g) were either used naïve, or underwent a facial nerve axotomy according to the procedure described by Graeber and Kreutzberg (J Neurocytol 1986; 15: 363-373). Various tissues including brain stem and olfactory bulb were removed from the animals and rapidly frozen in isopentane then stored at −70° C. until use. Tissues were sectioned (12 μm) and thaw-mounted onto Superfrost Plus slides. Slides were stored at −70° C. until use.
The slides were air dried prior to pre-incubation in Tris-HCl buffer (170 mM, pH 7.4) for 5 min at room temperature. 1000-fold excess of non-radioactive PK11195 at 1 μM, or non-radioactive PET tracer of the invention at 1 μM was added prior to incubation with Tris-HCl buffer (170 mM, pH 7.4) containing […] of test compound for 60 minutes. The reaction was then terminated by rinsing the sections two times for 5 mins each in ice-cold buffer (Tris-HCl, 170 mM, pH 7.4) and then the slides were dipped briefly in distilled water to rinse. Next the slides were dried in air and exposed to x-ray film. When exposing to x-ray film, a reference standard was included, for in vitro autoradiography a reference sample (20μ) was taken from the solution and placed on filter paper (taped onto a glass) and exposed together with the sections. The film was exposed for 24 hours and the data were analysed by drawing regions of interest around the specific anatomic structures as well as around the blocked samples, references and background using MCID software using a density gradient scale as a calibration curve adjusted to the reference sample.

Wistar rat heart PBR = molecular target: T2, Wistar rat heart PBR (Rattus norvegicus, UniProt P16257); assay: In vitro potency assay, competition binding against [3H]PK-11195, rat heart PBR
T2 construct: from tissue; host or cells: Wistar rat heart
Experimental: (§1) Affinity for PBR was screened using a method adapted from Le Fur et al (Life Sci. 1983; USA 33: 449-57). Non-radioactive analogues of the PET tracer of the invention and the associated racemate were tested. Each test compound (dissolved in 50 mM Tris-HCl, pH 7.4, 10 mM MgCl2 containing 1% DMSO) competed for binding to either Wistar rat heart PBR or human PBR against 0.3 nM [^3H] PK-11195. The reaction was carried out in 50 mM Tris-HCl, pH 7.4 10 mM MgCl2 for 15 minutes at 25° C.

In vivo biodistribution = conditions: for OB:Str 30 min: olfactory bulb to striata ratio; for OB:Str 30 min / OB 30 min: 30 min after injection; for OB 30 min: olfactory bulb, i.v.; for OB 30 min / Brain 2 min: rat; for Brain 2 min: i.v. tail vein, 2 min after injection
Experimental: Adult male Wistar rats (200-300 g) were injected with 1-3 MBq of test compound via the lateral tail vein. At 2, 10, 30 or 60 min (n=3) after injection, rats were euthanised and tissues or fluids were sampled for radioactive measurement on a gamma counter.

[3] = In vivo metabolism study (% parent in brain and plasma by HPLC); conditions: for Brain (% parent) 10 min pi / Brain (% parent) 30 min pi / Brain (% parent) 60 min pi: rat brain; for Brain (% parent) 10 min pi / Plasma (% parent) 10 min pi: 10 min post injection; for Brain (% parent) 30 min pi / Plasma (% parent) 30 min pi: 30 min post injection; for Brain (% parent) 60 min pi / Plasma (% parent) 60 min pi: 60 min post injection; for Plasma (% parent) 10 min pi / Plasma (% parent) 30 min pi / Plasma (% parent) 60 min pi: rat plasma
Experimental: The amount of brain or plasma activity that was due to parent test compound was tested up to 1 hour post-administration.
Adult male Wistar rats (150-200 g) were injected with approximately 20 MBq of test compound. Brain and plasma samples were analysed by HPLC at 10, 30 and 60 minutes pi.

[4] = In vitro chiral stability assay in human plasma; assay type: in vitro ADME; conditions: non-radioactive; 37° C., 4 hours; chiral HPLC
Experimental: (§2) The non-radioactive PET tracer of the invention obtained according to Example 2 was incubated (37° C.) in human plasma or in rat liver S9 fraction up to 4 hours. The enantiomers were extracted from the biological material by precipitation of proteins. The solid precipitate was separated from the liquid phase, which was evaporated to dryness. The dry residue was dissolved in acetonitrile.
(§3) A Dionex Ultimate 3000 HPLC system consisting of two pumps (micro pump LPG-3000 and Ultimate 3000 pump), a UV/visible detector, an auto sampler and two switching valves was applied in this study. One switching valve was connecting the two pumps and the auto sampler. This set-up made it possible to use either of the pumps to inject into the column. The pump used for injection was connected to the SPE column only. After the injection and elution the SPE column was washed using the injection pump. The system was made ready for a new injection while the chiral analysis was ongoing.
(§4) The other switching valve connected the analytical column and the SPE column. […]
(§5) Elution from the SPE column and separation: The elution started using mobile phase mixture of 10% MeCN and 90% 10 mM ammonium acetate. […] The analytical column was washed for 3 min using 70% MeCN/MeOH and then stabilized at 10% MeCN/MeOH to make the separation system ready for the next injection. […]

human PBR = human PBR (Homo sapiens, UniProt P30536); assay: In vitro potency assay, competition binding against [3H]PK-11195, human PBR
human PBR, sequence (P30536 whole entry): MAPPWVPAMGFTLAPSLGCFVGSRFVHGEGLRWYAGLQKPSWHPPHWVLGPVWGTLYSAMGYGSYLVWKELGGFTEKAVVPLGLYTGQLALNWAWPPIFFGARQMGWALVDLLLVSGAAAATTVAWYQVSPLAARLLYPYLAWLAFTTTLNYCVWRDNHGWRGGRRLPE
Experimental: as §1

[5] = In vitro chiral stability assay in rat liver S9 fraction; assay type: in vitro ADME; conditions: non-radioactive; 37° C., 4 hours; chiral HPLC
Experimental: as §2, §3, §4, §5

[6] = non-radioactive analogues tested, against 0.3 nM [3H]PK-11195, 15 minutes at 25° C., read-out: Rat Heart Ki
[7] = non-radioactive analogues tested, against 0.3 nM [3H]PK-11195, 15 minutes at 25° C., read-out: Human Ki

Row | SMILES | Blood (% of vehicle), PK11195 block (PBR [1]) | Lungs (% of vehicle), PK11195 block (PBR [1]) | Muscle (% of vehicle), PK11195 block (PBR [1]) | Olfactory bulb uptake (% of vehicle), PK11195 block (PBR [1]) | Striata uptake (% of vehicle), PK11195 block (PBR [1]) | Blood (% of vehicle), Non-radioactive Analogue block (PBR [1]) | Lungs (% of vehicle), Non-radioactive Analogue block (PBR [1]) | Muscle (% of vehicle), Non-radioactive Analogue block (PBR [1]) | Olfactory bulb uptake (% of vehicle), Non-radioactive Analogue block (PBR [1]) | Striata uptake (% of vehicle), Non-radioactive Analogue block (PBR [1]) | Naïve brain stem % specific binding, Unlabelled ligand (PBR [2]) | Olfactory bulb % specific binding, Unlabelled ligand (PBR [2]) | Naïve brain stem % specific binding, PK11195 (PBR [2]) | Olfactory bulb % specific binding, PK11195 (PBR [2]) | FNA brain stem % specific binding, Unlabelled ligand (PBR [2]) | FNA brain stem % specific binding, PK11195 (PBR [2]) | Ki (Wistar rat heart PBR; [6]) | OB:Str 30 min (In vivo biodistribution) | OB 30 min (In vivo biodistribution) | Brain 2 min (In vivo biodistribution) | other results
1 | CCN(CC)C(=O)[C@H]1CCCc2c1c1c(OC)cccc1n2CC[18F] [PET Tracer of Invention] | 289 % of vehicle | 14 % of vehicle | 131 % of vehicle | 43 % of vehicle | 117 % of vehicle | 253 % of vehicle | 12 % of vehicle | 143 % of vehicle | 37 % of vehicle | 114 % of vehicle | 70 % specific binding | 77 % specific binding | 70 % specific binding | 75 % specific binding | 86 % specific binding | 86 % specific binding | 0.87 nM | 3.2 | 0.45 % ID/g | 0.53 % ID/g | Brain (% parent) 10 min pi [3]: 98 ± 2 % parent; Brain (% parent) 30 min pi [3]: 96 ± 2 % parent; Brain (% parent) 60 min pi [3]: 94 ± 2 % parent; Plasma (% parent) 10 min pi [3]: 70 ± 18 % parent; Plasma (% parent) 30 min pi [3]: 41 ± 16 % parent; Plasma (% parent) 60 min pi [3]: 21 ± 5 % parent; racemisation after incubation in human plasma [4]: No racemisation was observed; Ki (human PBR; [7]): 9.17 nM; racemisation after incubation in rat liver S9 fraction [5]: did not racemise
2 | CCN(CC)C(=O)C1CCCc2c1c1c(OC)cccc1n2CC[18F] (racemic) [Racemate] | 247 % of vehicle | 13 % of vehicle | 90 % of vehicle | 37 % of vehicle | 114 % of vehicle | 289 % of vehicle | 11 % of vehicle | 140 % of vehicle | 59 % of vehicle | 124 % of vehicle | 21 % specific binding | 59 % specific binding | 13 % specific binding | 67 % specific binding | 72 % specific binding | 69 % specific binding |  | 3.0 | 0.36 % ID/g | 0.52 % ID/g | Ki (Wistar rat heart PBR): 1.47 nM; Brain (% parent) 10 min pi [3]: 100 ± 0 % parent; Brain (% parent) 30 min pi [3]: 97 ± 1 % parent; Brain (% parent) 60 min pi [3]: 91 ± 2 % parent; Plasma (% parent) 10 min pi [3]: 81 ± 4 % parent; Plasma (% parent) 30 min pi [3]: 49 ± 12 % parent; Plasma (% parent) 60 min pi [3]: 28 ± 1 % parent; Ki (human PBR): 11.5 nM
3 | CCN(CC)C(=O)[C@@H]1CCCc2c1c1c(OC)cccc1n2CC[18F] [Alternative Enantiomer] |  |  |  |  |  |  |  |  |  |  |  |  |  |  |  |  | 3.87 nM | 2.9 | 0.23 % ID/g | 0.53 % ID/g | Ki (human PBR; [7]): 14.1 nM

Reference: patent US8501153B2, “Active enantiomer” (GE Healthcare Limited, priority 2009, dated 2013)
